Patent US20220273659A1, “HETEROCYCLIC COMPOUNDS AS KINASE INHIBITORS” (NUVATION BIO INC., priority 2019, published 2022)
Read-outs that look alike come from different tables or passages of the source.

Key:
[1] = molecular target: T1, CDK4 (Homo sapiens, UniProt P11802); experiment: In vitro kinase inhibition IC50, luminescence (ADP Glo), retinoblastoma substrate; assay type: biochemical; settings: read-out: CDK4/D1 IC50
T1 construct: purchased Invitrogen PR8064A
Summary of the method: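 Inhibition of CDK4 was quantified by ADP Glo luminescence with retinoblastoma as substrate. Reactions held 5 nM kinase, 1 μM retinoblastoma and 25 μM ATP and ran 2H at room temperature. A Synergy Neo reader took signals 15 min and 45 min after detection reagent, and percent inhibition was fitted to a four-parameter logistic model in XLfit to obtain IC50.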

[2] = molecular target: T2, CDK6 (Homo sapiens, UniProt Q00534); experiment: as above; assay type: biochemical; settings: read-out: CDK6/D1 IC50
T2 construct: purchased Invitrogen PR8422B
Summary of the method: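 IC50 derived by four-parameter logistic fit of percent inhibition, read as ADP-Glo luminescence. Reactions: 5 nM CDK6, 1 μM retinoblastoma, 25 μM ATP, test compound 0.1–200 nM final, 2 h at room temperature.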

[3] = molecular target: T3, CDK1 (cyclin B) (Homo sapiens, UniProt P06493); experiment: Z'-LYTE kinase assay; assay type: biochemical
T3 construct: purchased Invitrogen Life Technologies (assay service)
Protocol: The plates were shaken for 30 seconds, and incubated for 60 minutes at room temperature. […] The plates were read on fluorescence plate reader with Dual emission at 445 nm and 520 nm.
The following equations were used for Z′-LYTE™ Screening Assay Data Analysis.

[4] = molecular target: T4, CDK2 (cyclin A) (Homo sapiens, UniProt P24941); experiment: Z'-LYTE kinase assay; assay type: biochemical
T4 construct: purchased Invitrogen Life Technologies (assay service)
Protocol: IC50 values of compounds against CDK2 (cyclin A) were determined by Z′-LYTE™ These screening assays were performed at Invitrogen Life Technologies (Grand Island, N.Y.) on a low volume NBS, black 384-well plate (#4514, Corning). 0.1 μL of 100×test compound in 100% DMSO (at specific solutions) was mixed with 2.4 μL of Kinase Buffer (50 mM HEPES pH 7.5, 0.01% BRIJ-35, 10 mM MgCl2, 1 mM EGTA), 5 μL of 2× Kinase (1.22-10.3 ng CDK2/cyclin A)/Peptide (2 μM Ser/Thr 12), and 2.5 μL of 4×ATP solution (31 μM). The plates were shaken for 30 seconds, and incubated for 60 minutes at room temperature. Development Reagent Solution (5 μL of 1:1024 dilution) was added to the plates followed with another 30-second plate shake and the plates were further incubated at room temperature for one hour. The plates were read on fluorescence plate reader with Dual emission at 445 nm and 520 nm.
The following equations were used for Z′-LYTE™ Screening Assay Data Analysis. Percent inhibition (100-% activity) was fitted to the “four-parameter logistic model” in XLfit for determination of IC50 values.

[5] = tested on: DU4475 breast carcinoma cells; experiment: Cancer cell proliferation assay, single agent (cell viability); assay type: cell-based; settings: Homo sapiens, DU-4475; Table 4; Rb negative; treatment 144 Hr with medium change at 72 Hr; Cell Titer-Glo or resazurin
Summary of the method: (§1)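 Viability read by resazurin or CellTiter-Glo after 24 h treatment (BT-549) or 144 h with a 72 h medium change (MCF-7, DU4475). Compounds tested at 7–9 concentrations, e.g. 1.1 nM–10 μM, added the day after seeding; IC50 by nonlinear sigmoidal regression.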

[6] = tested on: MCF-7 breast adenocarcinoma cells; experiment: as above; assay type: cell-based; settings: Homo sapiens, MCF7, Table 4; Rb positive; treatment 144 Hr with medium change at 72 Hr; Cell Titer-Glo or resazurin
Summary of the method: as §1

[7] = molecular target: T5, PI3Kδ kinase (Homo sapiens, UniProt O00329); experiment: PI3Kδ kinase assay (ADP-Glo, Reaction Biology); assay type: biochemical
T5 construct: purchased Reaction Biology Corporation (assay service)
Summary of the method: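 Kinase in Tris-HCl 40 mM pH 7.5, MgCl2 20 mM, orthovanadate 3 mM, DTT 2 mM, 0.05% CHAPS, 1% DMSO, preincubated 10 min at room temperature with compound (about 0.5 nM–100 μM). ATP started a 30-min reaction at 30 °C. ADP-Glo luminescence converted to μM ADP via standard curve; IC50 from nonlinear regression.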

T3 sequence (P06493 whole entry): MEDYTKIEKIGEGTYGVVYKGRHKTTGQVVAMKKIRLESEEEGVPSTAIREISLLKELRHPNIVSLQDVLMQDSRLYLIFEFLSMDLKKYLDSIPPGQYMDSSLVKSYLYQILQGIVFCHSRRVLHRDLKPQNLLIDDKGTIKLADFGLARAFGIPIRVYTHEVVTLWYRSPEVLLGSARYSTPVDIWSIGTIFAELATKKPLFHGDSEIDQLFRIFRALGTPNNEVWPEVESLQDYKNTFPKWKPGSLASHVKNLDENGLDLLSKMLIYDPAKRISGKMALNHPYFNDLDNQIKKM
T3 sequence (P14635 whole entry partner): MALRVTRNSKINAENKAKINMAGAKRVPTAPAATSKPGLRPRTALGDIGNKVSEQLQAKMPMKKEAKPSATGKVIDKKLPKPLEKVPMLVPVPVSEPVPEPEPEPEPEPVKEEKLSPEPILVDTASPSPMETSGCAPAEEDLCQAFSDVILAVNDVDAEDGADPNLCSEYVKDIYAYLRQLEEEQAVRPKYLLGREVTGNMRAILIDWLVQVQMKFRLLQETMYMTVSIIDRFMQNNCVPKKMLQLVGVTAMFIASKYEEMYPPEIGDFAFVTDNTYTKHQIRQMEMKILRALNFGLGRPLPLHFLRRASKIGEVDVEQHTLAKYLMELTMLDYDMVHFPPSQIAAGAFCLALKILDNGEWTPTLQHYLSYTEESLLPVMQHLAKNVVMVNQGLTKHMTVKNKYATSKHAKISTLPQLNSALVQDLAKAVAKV
T2 sequence (Q00534 whole entry): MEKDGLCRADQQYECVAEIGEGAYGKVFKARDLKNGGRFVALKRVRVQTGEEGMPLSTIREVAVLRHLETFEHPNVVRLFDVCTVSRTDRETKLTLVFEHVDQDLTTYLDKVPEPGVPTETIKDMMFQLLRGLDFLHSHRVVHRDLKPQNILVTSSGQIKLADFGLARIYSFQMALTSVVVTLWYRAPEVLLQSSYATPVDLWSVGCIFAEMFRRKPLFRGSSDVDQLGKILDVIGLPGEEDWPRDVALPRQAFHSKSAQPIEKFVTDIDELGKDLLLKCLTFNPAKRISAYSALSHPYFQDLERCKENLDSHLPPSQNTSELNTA
T2 sequence (P24385 whole entry partner): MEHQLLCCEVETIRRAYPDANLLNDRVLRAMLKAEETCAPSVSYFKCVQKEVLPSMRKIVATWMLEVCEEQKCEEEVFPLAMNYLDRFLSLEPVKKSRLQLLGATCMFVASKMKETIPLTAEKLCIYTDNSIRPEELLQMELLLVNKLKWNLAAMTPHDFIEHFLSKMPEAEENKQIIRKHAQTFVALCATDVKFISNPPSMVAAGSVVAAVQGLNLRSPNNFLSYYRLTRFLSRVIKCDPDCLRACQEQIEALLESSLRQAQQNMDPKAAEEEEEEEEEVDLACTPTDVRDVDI
T5 sequence (O00329 whole entry): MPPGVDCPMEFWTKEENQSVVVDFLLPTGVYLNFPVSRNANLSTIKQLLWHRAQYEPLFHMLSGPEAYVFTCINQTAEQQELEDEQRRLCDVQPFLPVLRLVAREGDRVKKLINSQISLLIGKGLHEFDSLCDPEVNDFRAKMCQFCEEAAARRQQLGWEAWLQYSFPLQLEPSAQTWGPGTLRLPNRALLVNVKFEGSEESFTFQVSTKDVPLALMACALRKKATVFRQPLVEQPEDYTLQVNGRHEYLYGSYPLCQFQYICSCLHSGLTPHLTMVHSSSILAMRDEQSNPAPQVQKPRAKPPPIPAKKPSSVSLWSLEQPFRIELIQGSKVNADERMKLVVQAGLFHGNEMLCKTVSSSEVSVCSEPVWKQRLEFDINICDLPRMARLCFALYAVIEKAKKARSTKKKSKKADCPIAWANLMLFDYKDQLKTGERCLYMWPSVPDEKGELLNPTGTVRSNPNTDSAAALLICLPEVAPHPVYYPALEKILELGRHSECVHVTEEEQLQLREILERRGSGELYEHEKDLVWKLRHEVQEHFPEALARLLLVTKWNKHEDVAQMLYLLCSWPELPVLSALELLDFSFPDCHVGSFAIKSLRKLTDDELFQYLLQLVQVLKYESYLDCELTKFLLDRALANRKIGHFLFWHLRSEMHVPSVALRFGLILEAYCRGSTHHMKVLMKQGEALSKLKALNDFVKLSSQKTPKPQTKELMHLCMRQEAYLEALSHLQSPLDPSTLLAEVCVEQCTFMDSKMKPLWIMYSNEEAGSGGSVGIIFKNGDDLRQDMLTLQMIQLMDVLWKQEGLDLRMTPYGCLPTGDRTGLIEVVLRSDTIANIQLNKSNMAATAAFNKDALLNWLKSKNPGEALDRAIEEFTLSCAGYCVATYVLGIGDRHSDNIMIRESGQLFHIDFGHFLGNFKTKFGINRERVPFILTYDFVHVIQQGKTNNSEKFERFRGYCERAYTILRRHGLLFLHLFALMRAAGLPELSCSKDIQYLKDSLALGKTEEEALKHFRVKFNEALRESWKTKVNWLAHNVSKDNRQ
T5 sequence (P27986 whole entry partner): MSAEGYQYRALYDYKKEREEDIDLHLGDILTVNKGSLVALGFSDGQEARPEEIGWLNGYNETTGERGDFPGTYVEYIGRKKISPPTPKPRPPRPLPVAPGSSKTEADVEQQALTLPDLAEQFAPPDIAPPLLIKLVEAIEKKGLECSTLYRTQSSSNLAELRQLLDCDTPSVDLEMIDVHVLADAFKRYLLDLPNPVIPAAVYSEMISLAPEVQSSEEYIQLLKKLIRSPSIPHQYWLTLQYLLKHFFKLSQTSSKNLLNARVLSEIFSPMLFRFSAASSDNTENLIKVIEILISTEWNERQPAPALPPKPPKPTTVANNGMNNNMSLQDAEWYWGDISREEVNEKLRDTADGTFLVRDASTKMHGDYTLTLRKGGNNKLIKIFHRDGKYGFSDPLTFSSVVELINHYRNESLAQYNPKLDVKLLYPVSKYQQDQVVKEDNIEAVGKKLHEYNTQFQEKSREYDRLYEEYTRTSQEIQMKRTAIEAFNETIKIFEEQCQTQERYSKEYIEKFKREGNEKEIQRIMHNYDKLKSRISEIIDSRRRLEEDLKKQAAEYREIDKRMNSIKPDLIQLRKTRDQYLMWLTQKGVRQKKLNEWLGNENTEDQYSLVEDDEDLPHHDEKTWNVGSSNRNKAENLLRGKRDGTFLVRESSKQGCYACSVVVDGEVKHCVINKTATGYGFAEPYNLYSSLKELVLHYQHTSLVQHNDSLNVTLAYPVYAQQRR
T1 sequence (P11802 whole entry): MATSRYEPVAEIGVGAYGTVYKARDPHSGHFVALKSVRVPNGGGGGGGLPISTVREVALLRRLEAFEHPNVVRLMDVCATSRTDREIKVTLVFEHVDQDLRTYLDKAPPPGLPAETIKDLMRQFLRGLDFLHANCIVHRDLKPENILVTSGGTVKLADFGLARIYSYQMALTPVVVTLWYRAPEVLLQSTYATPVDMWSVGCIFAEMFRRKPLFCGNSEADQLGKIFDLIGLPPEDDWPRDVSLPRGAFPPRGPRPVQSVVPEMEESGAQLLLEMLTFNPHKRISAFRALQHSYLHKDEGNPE
T1 sequence (P24385 whole entry partner): as the sequence (P24385 whole entry partner) above

| IC50 [1] [nM] | IC50 [2] [nM] | IC50 ([3]; read-out: CDK1/B IC50) [nM] | IC50 [4] [nM] | IC50 [5] [nM] | IC50 [6] [nM] | IC50 [7] [nM] | IC50 [3] [nM] | Structure (SMILES) |
| --- | --- | --- | --- | --- | --- | --- | --- | --- |
| > 200 | 120 | > 3570 | 57 | > 10000 | 743 | – | – | CCCCCc1ccc(S(=O)(=O)N2CCC(Nc3ncc4cc(C#N)c(=O)n(C5CCCC5)c4n3)CC2)cc1 [Compound No. 381, 8-cyclopentyl-7-oxo-2-(1-(4-pentylphenylsulfonyl)piperidin-4-ylamino)-7,8-dihydropyrido[2,3-d]pyrimidine-6-carbonitrile] |
| 29 | 62 | 735 | 475 | 5660 | 770 | – | – | N#Cc1cc2cnc(NC3CCCC3O)nc2n(C2CCCC2)c1=O (stereo not shown) [Compound No. 349, 8-cyclopentyl-2-((2-hydroxycyclopentyl)amino)-7-oxo-7,8-dihydropyrido[2,3-d]pyrimidine-6-carbonitrile] |
| 4 | 4.5 | 88 | 19 | – | – | – | – | CS(=O)(=O)N1CCC(Nc2ncc3cc(C(F)F)c(=O)n(C4CC5CCC4C5)c3n2)CC1 (racemic) [Compound 401, 8-((1S,2S,4R)-bicyclo[2.2.1]heptan-2-yl)-6-(difluoromethyl)-2-((1-(methylsulfonyl)piperidin-4-yl)amino)pyrido[2,3-d]pyrimidin-7(8H)-one] |
| 69 | 34 | > 3400 | – | 3820 | 675 | 456 | – | CN(C)CCn1cc(Nc2ncc3cc(C#N)c(=O)n(C4CCCC4)c3n2)cn1 [Compound No. 105, 8-cyclopentyl-2-((1-(2-(dimethylamino)ethyl)-1H-pyrazol-4-yl)amino)-7-oxo-7,8-dihydropyrido[2,3-d]pyrimidine-6-carbonitrile] |
| 17 | 7 | – | 14 | – | – | – | 100 | Cn1ccc(S(=O)(=O)N2CCC(Nc3ncc4cc(C(F)F)c(=O)n([C@@H]5C[C@H]6CC[C@@H]5C6)c4n3)CC2)n1 [Compound 396, 8-((1R,2R,4S)-bicyclo[2.2.1]heptan-2-yl)-6-(difluoromethyl)-2-((1-((1-methyl-1H-pyrazol-3-yl)sulfonyl)piperidin-4-yl)amino)pyrido[2,3-d]pyrimidin-7(8H)-one] |
| 26 | 9 | > 5000 | – | 1700 | 650 | 5690 | – | N#Cc1cc2cnc(Nc3nc(C4CCNCC4)cs3)nc2n(C2CCCC2)c1=O [Compound No. 327, 8-cyclopentyl-7-oxo-2-((4-(piperidin-4-yl)thiazol-2-yl)amino)-7,8-dihydropyrido [2,3-d] pyrimidine-6-carbonitrile] |
| 2.5 | 4.5 | – | 5 | – | – | – | 31 | CS(=O)(=O)N1CCC(Nc2ncc3cc(C(F)F)c(=O)n([C@H]4C[C@H]5C[C@H]5C4)c3n2)CC1 [Compound 196, 8-((1R,3R,5S)-bicyclo[3.1.0]hexan-3-yl)-6-(difluoromethyl)-2-((1-(methylsulfonyl)piperidin-4-yl)amino)pyrido[2,3-d]pyrimidin-7(8H)-one] |
| 13 | 11 | – | 18 | – | – | – | 66 | Cn1ccc(S(=O)(=O)N2CCC(Nc3ncc4cc(C(F)F)c(=O)n([C@H]5C[C@@H]6CC[C@H]5C6)c4n3)CC2)n1 [Compound 395, 8-((1S,2S,4R)-bicyclo[2.2.1]heptan-2-yl)-6-(difluoromethyl)-2-((1-((1-methyl-1H-pyrazol-3-yl)sulfonyl)piperidin-4-yl)amino)pyrido[2,3-d]pyrimidin-7(8H)-one] |
| 58 | 26 | – | 154 | 3760 | 830 | 39 | – | CN(C)CC(=O)N1CCC(n2cc(Nc3ncc4cc(C#N)c(=O)n(C5CCCC5)c4n3)cn2)CC1 [Compound No. 202, 8-cyclopentyl-2-((1-(1-(dimethylglycyl)piperidin-4-yl)-1H-pyrazol-4-yl)amino)-7-oxo-7,8-dihydropyrido[2,3-d]pyrimidine-6-carbonitrile] |
